Source: ChEMBL document CHEMBL4406913, “INCB050465 (Parsaclisib), a Novel Next-Generation Inhibitor of Phosphoinositide 3-Kinase Delta (PI3Kδ)” (ACS Med Chem Lett, 2019)
Calls of active or inactive are those of the source. The rule behind the calls is not given here.

How the values were obtained:
SU-DHL-6 = assay: Cytotoxicity against human SUDHL6 cells assessed as reduction in cell viability incubated for 4 days by celltiter glo luminescent assay; format: functional, cell-based; conditions: SU-DHL-6, 96 h
[1] = AUC in rat at 5 mg/kg, po measured for 24 hrs by LC/MS/MS analysis; format: ADME, organism-based; conditions: in vivo
[2] = Half life in cynomolgus monkey at 10 mg/kg, po measured for 24 hrs by LC/MS/MS analysis; format: ADME, organism-based, Macaca fascicularis; conditions: in vivo
[3] = Fractional unbound in human plasma; format: ADME, cell-free
[4] = AUC in cynomolgus monkey at 10 mg/kg, po measured for 24 hrs by LC/MS/MS analysis; format: ADME, organism-based, Macaca fascicularis; conditions: in vivo
Pfeiffer [5] = assay: Cytotoxicity against human Pfeiffer cells assessed as reduction in cell viability incubated for 4 days by [3H]-thymidine incorporation based liquid scintillation counter method; format: functional
Pfeiffer [6] = assay: Cytotoxicity against human Pfeiffer cells assessed as reduction in protein binding adjusted cell viability incubated for 4 days by [3H]-thymidine incorporation based liquid scintillation counter method; format: functional
[7] = target: T1, Phosphatidylinositol 4,5-bisphosphate 3-kinase catalytic subunit delta isoform (Homo sapiens, UniProt O00329)
T1 sequence (O00329 whole entry): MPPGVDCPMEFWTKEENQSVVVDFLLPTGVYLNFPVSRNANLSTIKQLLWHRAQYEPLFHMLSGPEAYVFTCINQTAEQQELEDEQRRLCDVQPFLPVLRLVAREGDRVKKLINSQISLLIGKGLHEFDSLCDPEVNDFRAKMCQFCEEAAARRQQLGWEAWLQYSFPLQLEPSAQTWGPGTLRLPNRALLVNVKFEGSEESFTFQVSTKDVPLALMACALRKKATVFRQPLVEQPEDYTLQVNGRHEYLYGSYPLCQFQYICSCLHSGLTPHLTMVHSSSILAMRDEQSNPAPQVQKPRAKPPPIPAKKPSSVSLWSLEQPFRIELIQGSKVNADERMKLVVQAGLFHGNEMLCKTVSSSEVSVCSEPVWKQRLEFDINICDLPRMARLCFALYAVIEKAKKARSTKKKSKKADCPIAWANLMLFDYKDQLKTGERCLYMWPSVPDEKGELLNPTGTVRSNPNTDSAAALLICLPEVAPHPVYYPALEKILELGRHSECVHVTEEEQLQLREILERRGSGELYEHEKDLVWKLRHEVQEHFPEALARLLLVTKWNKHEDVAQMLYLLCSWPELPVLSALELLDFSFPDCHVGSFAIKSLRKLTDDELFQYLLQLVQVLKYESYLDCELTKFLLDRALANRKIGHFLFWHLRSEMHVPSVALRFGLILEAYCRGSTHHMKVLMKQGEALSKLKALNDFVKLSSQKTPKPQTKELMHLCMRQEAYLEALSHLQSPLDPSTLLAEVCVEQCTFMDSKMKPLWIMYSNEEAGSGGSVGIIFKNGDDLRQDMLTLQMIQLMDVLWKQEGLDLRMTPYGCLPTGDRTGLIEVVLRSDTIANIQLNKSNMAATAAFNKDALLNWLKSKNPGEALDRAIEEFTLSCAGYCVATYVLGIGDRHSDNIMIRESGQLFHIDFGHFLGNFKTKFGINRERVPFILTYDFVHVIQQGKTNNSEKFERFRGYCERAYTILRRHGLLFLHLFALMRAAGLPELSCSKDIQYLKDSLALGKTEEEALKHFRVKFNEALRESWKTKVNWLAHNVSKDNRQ
Description: (§1) Inhibition of PI3Kdelta (unknown origin) using D-myophosphatidylinositol 4,5-bisphosphate as substrate incubated for 120 mins by [gamma-33P]ATP based SPA assay

[8] = target: T2, Phosphatidylinositol 4,5-bisphosphate 3-kinase catalytic subunit delta isoform (Homo sapiens) (UniProt O00329)
T2 sequence (whole entry): T1 sequence (O00329 whole entry)
Description: as §1

[9] = Intrinsic clearance in human liver microsomes at 1 uM measured upto 30 mins by LC/MS analysis; format: ADME, Microsome; conditions: read-out: CLH (converted)
[10] = target: Voltage-gated inwardly rectifying potassium channel KCNH2 (Homo sapiens, UniProt Q12809); assay: Inhibition of human ERG channel at 30 uM incubated for 24 hrs in presence of [3H] Dofetilide by filter binding assay based scintillation counting analysis
Chain of Voltage-gated inwardly rectifying potassium channel KCNH2 (Q12809 whole entry): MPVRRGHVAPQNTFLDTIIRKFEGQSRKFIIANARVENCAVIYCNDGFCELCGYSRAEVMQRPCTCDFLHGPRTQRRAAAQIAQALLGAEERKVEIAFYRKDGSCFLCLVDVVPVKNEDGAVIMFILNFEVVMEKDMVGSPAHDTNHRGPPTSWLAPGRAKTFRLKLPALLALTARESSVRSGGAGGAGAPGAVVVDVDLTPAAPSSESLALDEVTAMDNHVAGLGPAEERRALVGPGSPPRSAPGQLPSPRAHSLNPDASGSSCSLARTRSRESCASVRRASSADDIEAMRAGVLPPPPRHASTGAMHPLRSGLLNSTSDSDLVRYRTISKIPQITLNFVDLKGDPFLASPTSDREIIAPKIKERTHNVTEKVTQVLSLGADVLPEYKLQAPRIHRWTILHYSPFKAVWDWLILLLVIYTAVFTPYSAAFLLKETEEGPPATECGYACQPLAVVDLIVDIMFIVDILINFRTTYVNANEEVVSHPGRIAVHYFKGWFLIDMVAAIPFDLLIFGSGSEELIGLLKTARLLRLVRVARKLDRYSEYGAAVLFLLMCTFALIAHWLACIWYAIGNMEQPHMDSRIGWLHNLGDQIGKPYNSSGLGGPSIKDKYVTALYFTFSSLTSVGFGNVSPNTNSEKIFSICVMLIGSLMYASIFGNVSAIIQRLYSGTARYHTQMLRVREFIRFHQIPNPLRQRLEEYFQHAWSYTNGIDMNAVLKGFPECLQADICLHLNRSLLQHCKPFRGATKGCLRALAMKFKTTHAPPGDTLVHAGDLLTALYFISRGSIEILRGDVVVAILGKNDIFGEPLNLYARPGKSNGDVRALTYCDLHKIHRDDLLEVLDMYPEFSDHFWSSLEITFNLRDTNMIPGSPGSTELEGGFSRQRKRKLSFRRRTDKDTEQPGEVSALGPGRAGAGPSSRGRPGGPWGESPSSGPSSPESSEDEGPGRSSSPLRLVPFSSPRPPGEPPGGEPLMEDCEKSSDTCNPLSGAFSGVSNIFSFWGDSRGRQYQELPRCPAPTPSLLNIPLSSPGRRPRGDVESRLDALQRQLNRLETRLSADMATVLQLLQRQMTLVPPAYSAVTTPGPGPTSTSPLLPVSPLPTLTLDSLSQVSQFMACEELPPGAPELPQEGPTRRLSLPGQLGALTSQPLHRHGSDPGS

[11] = Permeability across apical to basolateral side in human Caco2 cells at 50 uM incubated for 120 mins by LC/MS analysis; format: ADME, cell-based; conditions: Caco-2, read-out: permeability
[12] = AUC in cynomolgus monkey at 1 mg/kg, po measured for 24 hrs by LC/MS/MS analysis; format: ADME, organism-based, Macaca fascicularis; conditions: in vivo
[13] = Toxicity in dog assessed as testicular lesions observed on day 28; design: species or system Canis lupus familiaris; conditions: in vivo
[14] = Toxicity in Beagle dog; design: species or system Canis lupus familiaris; conditions: in vivo
[15] = AUC in rat at 4 mg/kg, po measured for 24 hrs by LC/MS/MS analysis; format: ADME, organism-based; conditions: in vivo
HEK293 = assay: Cytotoxicity against human HEK293 cells assessed as reduction in cell viability at 20 uM incubated for 72 hrs by celltiter glo luminescent assay; format: cell-based; conditions: hek293, 72 h
[16] = AUC in cynomolgus monkey at 2 mg/kg, po measured for 24 hrs by LC/MS/MS analysis; format: ADME, organism-based, Macaca fascicularis; conditions: in vivo
[17] = Half life in cynomolgus monkey at 2 mg/kg, po measured for 24 hrs by LC/MS/MS analysis; format: ADME, organism-based, Macaca fascicularis; conditions: in vivo

SMILES | IC50 (SU-DHL-6) | fraction unbound [3] | IC50 (Pfeiffer [5]) | IC50 (Pfeiffer [6]) | IC50 [7] | further results
Cc1csc2nc([C@H](C)Nc3ncnc4[nH]cnc34)c(-c3cccc(F)c3)c(=O)n12 [DEZAPELISIB] | 18 nM | 0.17 | 14 nM | 66 nM |  | AUC at 24 h [1]: 4.4 µM·h; half-life [2]: 78 min; AUC at 24 h [4]: 4.9 µM·h
CC(Nc1ncnc2[nH]cnc12)c1ccc2cccnc2c1-c1cccc(F)c1 (racemic) | 1800 nM | 0.1 | 490 nM | 3200 nM | 430 nM | 
COc1c([C@H](C)n2nc(C)c3c(N)ncnc32)cc(Cl)c(C)c1C1CNC(=O)C1 (stereo partly drawn) | 13 nM | 0.1 | 51 nM | 480 nM | 2.4 nM | inhibition [8]: inactive; CLint scaled at 1 µM [9]: 11.7 mL/min/kg; inhibition (INH) [10]: Not Active; Papp A→B at 2 h, 50 µM [11]: 2.8 ×10⁻⁶ cm/s
COc1c([C@H](C)n2nc(C)c3c(N)ncnc32)cc(Cl)c(C#N)c1C1CN(C[C@H](C)O)C1 | 2.4 nM | 0.42 | 1.5 nM | 3.6 nM | 1.9 nM | AUC at 24 h [1]: 6.8 µM·h; AUC at 24 h [12]: 4.1 µM·h; inhibition (INH) [10]: Active; Activity [13]: Toxic
C[C@H](Nc1ncnc2[nH]cnc12)c1cc(Cl)c2ccnnc2c1-c1cccc(F)c1 | 73 nM | 0.059 | 26 nM | 270 nM |  | AUC at 24 h [1]: 13 µM·h; Activity [14]: Toxic
COc1c(C(C)n2nc(C)c3c(N)ncnc32)cc(Cl)c(C)c1C1CCN(C)CC1 (racemic) | 44 nM | 0.19 | 11 nM | 53 nM | 11 nM | 
Cc1c(Cl)cc(C(C)Nc2ncnc3[nH]cnc23)c(-c2cccc(F)c2)c1-c1cnn(C)c1 (racemic) | 60 nM |  | 8.7 nM |  | 5.3 nM | 
COc1c([C@H](C)Nc2ncnc3[nH]cnc23)cc(Cl)c(C)c1-c1cnn(C)c1 | 100 nM | 0.029 | 120 nM | 950 nM | 2.8 nM | 
CCOc1c([C@H](C)n2nc(C)c3c(N)ncnc32)cc(Cl)c(C#N)c1C1CNC(=O)C1 (stereo partly drawn) | 0.47 nM | 0.23 | 1.7 nM | 4.1 nM | < 1 nM | inhibition [8]: inactive; CLint scaled at 1 µM [9]: 11.7 mL/min/kg; Papp A→B at 2 h, 50 µM [11]: 0.3 ×10⁻⁶ cm/s
COc1c([C@H](C)Nc2ncnc(N)c2C#N)cc(Cl)c(C)c1-c1cncc(S(C)(=O)=O)c1 | 3.1 nM | 0.14 | 3.4 nM | 17 nM | 0.99 nM | AUC at 24 h [15]: 10 µM·h; inhibition (INH) [10]: Active; Activity (HEK293): Toxic; Papp A→B at 2 h, 50 µM [11]: 7.9 ×10⁻⁶ cm/s
COc1c(C(C)n2ncc3c(N)ncnc32)cc(Cl)c(C)c1-c1ccnc(C(=O)N(C)C)c1 (racemic) | 840 nM | 0.092 | 610 nM | 4500 nM | 120 nM | 
COc1c([C@H](C)Nc2ncnc(N)c2C#N)cc(Cl)c(C)c1-c1ccc(C(=O)N(C)C)cn1 | 21 nM | 0.22 | 17 nM | 61 nM | 1.8 nM | AUC at 24 h [16]: 0.2 µM·h; AUC at 24 h [15]: 7.7 µM·h; half-life [17]: 12 min; inhibition (INH) [10]: Not Active; Activity (HEK293): Non-Toxic
Cc1c(Cl)cc(C(C)Nc2ncnc3[nH]cnc23)c(-c2cccc(F)c2)c1C#N (racemic) | 1300 nM | 0.0064 | 660 nM |  |  | 
COc1c([C@H](C)Nc2ncnc3[nH]cnc23)cc(Cl)c(C)c1-c1ccc(S(C)(=O)=O)cc1 | 170 nM | 0.013 | 130 nM | 3100 nM |  | 
COc1c([C@H](C)Nc2ncnc3[nH]cnc23)cc(Cl)c(C)c1-c1cncc(S(C)(=O)=O)c1 | 14 nM | 0.12 | 9.5 nM | 40 nM | 1.7 nM | AUC at 24 h [1]: 3 µM·h; Papp A→B at 2 h, 50 µM [11]: 0.5 ×10⁻⁶ cm/s
CCOc1c([C@H](C)n2nc(C)c3c(N)ncnc32)cc(Cl)c(C)c1C1CNC(=O)C1 (stereo partly drawn) | 2.1 nM | 0.065 | 4.8 nM | 47 nM | 1.4 nM | inhibition [8]: inactive; CLint scaled at 1 µM [9]: 11.7 mL/min/kg; Papp A→B at 2 h, 50 µM [11]: 1.9 ×10⁻⁶ cm/s
C[C@H](Nc1ncnc2[nH]cnc12)c1cc(Cl)c2cccnc2c1-c1cccc(F)c1 | 140 nM | 0.014 | 50 nM | 1000 nM | 8.4 nM | 
COc1c([C@H](C)n2nc(C)c3c(N)ncnc32)cc(Cl)c(C)c1-c1ccnc(C(=O)N(C)C)c1 | 7.4 nM | 0.089 | 8.6 nM | 61 nM | 0.93 nM | 
